Results from patent US8959984B2, “Proteome-wide quantification of small molecule binding to cellular target proteins” (priority 2007, dated 2015).

Assays:
Assay in all cases: binding to VI16742 beads (HeLa lysate, SILAC MS)
ACLY (IPI00021290) = target: T1, ACLY (IPI00021290) (Homo sapiens, UniProt P53396)
T1 construct: endogenous in cells; host or cells: HeLa S3
T1 sequence (P53396 1-1101): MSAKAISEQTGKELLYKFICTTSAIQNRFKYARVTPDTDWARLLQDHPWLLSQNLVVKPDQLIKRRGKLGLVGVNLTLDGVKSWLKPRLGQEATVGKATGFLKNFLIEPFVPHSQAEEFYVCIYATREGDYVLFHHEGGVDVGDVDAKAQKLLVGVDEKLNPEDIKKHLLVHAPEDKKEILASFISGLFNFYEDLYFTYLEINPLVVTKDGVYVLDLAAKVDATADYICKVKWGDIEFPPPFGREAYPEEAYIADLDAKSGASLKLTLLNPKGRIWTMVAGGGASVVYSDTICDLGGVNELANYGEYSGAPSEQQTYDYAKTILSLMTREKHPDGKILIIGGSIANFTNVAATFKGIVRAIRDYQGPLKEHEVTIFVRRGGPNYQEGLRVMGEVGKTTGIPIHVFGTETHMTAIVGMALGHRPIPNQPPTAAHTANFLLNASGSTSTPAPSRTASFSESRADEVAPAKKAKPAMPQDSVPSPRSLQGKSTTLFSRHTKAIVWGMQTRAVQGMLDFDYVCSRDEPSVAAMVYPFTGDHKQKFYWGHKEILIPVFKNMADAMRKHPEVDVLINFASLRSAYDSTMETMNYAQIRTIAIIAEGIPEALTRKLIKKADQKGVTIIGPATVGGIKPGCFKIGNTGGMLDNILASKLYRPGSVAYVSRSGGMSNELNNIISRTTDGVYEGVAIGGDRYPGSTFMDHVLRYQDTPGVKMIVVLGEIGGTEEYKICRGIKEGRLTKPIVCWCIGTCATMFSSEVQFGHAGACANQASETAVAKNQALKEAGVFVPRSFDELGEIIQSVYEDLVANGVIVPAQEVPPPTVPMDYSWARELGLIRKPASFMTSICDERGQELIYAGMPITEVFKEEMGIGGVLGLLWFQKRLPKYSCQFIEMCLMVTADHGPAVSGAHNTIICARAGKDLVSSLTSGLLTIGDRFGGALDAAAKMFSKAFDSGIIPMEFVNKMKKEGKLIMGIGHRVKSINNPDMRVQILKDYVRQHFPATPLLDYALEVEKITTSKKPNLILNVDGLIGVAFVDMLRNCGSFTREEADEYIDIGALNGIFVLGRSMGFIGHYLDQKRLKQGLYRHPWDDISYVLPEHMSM
Excerpt: (§1) In an alternative implementation of the chemical proteomic approach according to the invention, the broadly-selective pyrido[2,3-d]pyrimidine-based kinase inhibitor VI16742 has been used for affinity capture (FIG. 10a). […] As shown by gene ontology analysis, the corresponding molecular functions were highly over-represented in proteins specifically retained by the inhibitor resin (FIG. 10b).

PDE4D (IPI00002449) = target: T2, PDE4D (IPI00002449) (Homo sapiens, UniProt Q08499)
T2 construct: endogenous in cells; host or cells: HeLa S3 cell lysate
Excerpt: as §1

MET (IPI00294528) = target: T3, MET (IPI00294528) (Homo sapiens, UniProt P08581)
T3 construct: endogenous in cells; host or cells: HeLa S3 cell lysate
Excerpt: as §1

AGL (IPI00328318) = target: T4, AGL (IPI00328318) (Homo sapiens, UniProt P35573)
T4 construct: endogenous in cells; host or cells: HeLa S3
Excerpt: as §1

DCI (IPI00300567) = target: T5, DCI (IPI00300567) (Homo sapiens, UniProt P42126)
T5 construct: endogenous in cells; host or cells: HeLa S3
T5 sequence (P42126 42-302): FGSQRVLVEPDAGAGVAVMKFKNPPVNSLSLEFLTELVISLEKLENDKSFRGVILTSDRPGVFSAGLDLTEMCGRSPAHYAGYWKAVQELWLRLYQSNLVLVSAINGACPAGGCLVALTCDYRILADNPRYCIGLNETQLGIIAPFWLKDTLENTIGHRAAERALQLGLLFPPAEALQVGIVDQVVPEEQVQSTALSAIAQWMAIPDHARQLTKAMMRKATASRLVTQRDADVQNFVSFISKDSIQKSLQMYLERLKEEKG
Excerpt: as §1

MASTL (IPI00074258) = target: T6, MASTL (IPI00074258) (Homo sapiens, UniProt Q96GX5)
T6 construct: endogenous in cells; host or cells: HeLa S3
T6 sequence (Q96GX5 1-879): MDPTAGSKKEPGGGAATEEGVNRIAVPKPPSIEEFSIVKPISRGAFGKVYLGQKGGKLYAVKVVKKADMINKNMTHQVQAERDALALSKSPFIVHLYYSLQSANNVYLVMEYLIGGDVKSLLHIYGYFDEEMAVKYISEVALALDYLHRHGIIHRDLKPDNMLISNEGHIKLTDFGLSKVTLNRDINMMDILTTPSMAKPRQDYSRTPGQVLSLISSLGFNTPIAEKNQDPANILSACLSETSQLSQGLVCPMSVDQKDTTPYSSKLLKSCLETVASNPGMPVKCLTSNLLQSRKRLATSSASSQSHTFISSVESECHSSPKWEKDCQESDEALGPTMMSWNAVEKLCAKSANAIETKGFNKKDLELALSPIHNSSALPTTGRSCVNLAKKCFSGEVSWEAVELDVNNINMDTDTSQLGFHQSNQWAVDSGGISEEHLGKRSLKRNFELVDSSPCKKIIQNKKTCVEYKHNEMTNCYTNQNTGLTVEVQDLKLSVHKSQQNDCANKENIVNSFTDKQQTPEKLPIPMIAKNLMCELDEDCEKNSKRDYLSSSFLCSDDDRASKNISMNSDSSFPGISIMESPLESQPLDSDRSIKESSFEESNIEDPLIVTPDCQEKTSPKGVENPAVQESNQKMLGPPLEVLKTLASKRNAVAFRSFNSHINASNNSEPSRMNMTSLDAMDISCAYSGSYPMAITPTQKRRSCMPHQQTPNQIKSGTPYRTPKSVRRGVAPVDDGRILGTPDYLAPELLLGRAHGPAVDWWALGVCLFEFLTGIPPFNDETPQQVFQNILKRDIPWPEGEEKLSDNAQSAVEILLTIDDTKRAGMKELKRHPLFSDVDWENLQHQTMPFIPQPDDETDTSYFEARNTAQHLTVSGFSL
Excerpt: as §1

[1] = control beads vs first incubation

T2 sequence (Q08499 whole entry): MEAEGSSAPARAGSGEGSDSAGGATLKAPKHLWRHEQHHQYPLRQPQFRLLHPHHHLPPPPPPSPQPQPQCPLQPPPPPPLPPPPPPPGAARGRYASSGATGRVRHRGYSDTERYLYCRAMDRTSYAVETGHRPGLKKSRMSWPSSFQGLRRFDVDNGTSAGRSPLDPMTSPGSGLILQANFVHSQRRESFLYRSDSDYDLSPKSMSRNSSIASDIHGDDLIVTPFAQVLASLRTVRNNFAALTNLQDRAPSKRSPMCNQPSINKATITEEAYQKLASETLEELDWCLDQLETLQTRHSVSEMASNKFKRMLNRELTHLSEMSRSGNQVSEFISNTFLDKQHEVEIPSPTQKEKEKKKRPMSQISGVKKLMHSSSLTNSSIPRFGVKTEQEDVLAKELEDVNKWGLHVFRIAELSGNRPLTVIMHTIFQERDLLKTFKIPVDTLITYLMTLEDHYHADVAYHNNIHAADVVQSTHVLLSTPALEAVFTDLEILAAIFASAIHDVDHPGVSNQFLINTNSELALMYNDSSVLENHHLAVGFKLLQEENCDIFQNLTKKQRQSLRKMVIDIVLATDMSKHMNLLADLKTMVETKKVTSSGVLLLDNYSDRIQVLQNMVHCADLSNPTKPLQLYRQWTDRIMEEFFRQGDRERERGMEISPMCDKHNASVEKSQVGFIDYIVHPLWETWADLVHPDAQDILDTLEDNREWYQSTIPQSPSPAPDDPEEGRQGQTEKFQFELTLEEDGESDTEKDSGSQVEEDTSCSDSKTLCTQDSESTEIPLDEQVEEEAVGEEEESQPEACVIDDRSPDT
T4 sequence (P35573 whole entry): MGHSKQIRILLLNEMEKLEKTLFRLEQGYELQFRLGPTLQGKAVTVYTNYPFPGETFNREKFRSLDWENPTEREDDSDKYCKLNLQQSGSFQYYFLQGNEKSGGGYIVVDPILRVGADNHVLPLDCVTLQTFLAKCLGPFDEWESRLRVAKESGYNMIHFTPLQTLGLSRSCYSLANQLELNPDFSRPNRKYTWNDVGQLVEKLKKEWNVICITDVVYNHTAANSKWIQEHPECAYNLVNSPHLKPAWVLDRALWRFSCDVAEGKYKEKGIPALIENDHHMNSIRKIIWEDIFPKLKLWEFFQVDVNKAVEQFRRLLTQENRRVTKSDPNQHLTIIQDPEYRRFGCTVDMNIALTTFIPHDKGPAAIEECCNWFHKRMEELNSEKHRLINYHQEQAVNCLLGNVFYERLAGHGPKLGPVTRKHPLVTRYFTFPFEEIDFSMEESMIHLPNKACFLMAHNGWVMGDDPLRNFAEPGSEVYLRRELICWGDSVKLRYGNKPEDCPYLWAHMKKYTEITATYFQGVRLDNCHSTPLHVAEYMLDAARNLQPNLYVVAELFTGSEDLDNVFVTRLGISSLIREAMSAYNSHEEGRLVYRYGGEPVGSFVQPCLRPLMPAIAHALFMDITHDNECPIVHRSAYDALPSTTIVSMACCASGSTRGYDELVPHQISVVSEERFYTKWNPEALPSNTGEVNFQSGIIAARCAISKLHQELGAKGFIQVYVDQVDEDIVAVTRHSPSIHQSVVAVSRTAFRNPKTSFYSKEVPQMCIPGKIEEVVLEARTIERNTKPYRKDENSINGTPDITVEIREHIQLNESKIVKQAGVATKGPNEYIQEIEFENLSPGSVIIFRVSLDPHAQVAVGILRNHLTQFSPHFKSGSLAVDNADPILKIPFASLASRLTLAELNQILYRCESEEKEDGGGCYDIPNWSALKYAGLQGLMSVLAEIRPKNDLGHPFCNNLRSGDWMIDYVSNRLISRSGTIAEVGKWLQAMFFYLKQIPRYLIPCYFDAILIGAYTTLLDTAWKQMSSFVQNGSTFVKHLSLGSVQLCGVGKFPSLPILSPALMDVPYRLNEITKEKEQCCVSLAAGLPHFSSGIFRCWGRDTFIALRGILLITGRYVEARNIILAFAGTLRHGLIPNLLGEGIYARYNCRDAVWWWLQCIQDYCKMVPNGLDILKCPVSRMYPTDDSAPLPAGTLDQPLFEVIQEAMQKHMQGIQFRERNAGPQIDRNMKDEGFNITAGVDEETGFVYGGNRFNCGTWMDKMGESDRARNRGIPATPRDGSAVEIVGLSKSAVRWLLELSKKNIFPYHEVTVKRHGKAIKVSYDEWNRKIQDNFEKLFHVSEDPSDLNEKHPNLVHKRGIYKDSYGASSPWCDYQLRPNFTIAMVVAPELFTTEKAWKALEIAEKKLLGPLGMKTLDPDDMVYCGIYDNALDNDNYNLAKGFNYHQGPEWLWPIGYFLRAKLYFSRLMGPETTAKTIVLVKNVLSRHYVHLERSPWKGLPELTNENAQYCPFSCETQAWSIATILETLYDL
T3 sequence (P08581 25-1390): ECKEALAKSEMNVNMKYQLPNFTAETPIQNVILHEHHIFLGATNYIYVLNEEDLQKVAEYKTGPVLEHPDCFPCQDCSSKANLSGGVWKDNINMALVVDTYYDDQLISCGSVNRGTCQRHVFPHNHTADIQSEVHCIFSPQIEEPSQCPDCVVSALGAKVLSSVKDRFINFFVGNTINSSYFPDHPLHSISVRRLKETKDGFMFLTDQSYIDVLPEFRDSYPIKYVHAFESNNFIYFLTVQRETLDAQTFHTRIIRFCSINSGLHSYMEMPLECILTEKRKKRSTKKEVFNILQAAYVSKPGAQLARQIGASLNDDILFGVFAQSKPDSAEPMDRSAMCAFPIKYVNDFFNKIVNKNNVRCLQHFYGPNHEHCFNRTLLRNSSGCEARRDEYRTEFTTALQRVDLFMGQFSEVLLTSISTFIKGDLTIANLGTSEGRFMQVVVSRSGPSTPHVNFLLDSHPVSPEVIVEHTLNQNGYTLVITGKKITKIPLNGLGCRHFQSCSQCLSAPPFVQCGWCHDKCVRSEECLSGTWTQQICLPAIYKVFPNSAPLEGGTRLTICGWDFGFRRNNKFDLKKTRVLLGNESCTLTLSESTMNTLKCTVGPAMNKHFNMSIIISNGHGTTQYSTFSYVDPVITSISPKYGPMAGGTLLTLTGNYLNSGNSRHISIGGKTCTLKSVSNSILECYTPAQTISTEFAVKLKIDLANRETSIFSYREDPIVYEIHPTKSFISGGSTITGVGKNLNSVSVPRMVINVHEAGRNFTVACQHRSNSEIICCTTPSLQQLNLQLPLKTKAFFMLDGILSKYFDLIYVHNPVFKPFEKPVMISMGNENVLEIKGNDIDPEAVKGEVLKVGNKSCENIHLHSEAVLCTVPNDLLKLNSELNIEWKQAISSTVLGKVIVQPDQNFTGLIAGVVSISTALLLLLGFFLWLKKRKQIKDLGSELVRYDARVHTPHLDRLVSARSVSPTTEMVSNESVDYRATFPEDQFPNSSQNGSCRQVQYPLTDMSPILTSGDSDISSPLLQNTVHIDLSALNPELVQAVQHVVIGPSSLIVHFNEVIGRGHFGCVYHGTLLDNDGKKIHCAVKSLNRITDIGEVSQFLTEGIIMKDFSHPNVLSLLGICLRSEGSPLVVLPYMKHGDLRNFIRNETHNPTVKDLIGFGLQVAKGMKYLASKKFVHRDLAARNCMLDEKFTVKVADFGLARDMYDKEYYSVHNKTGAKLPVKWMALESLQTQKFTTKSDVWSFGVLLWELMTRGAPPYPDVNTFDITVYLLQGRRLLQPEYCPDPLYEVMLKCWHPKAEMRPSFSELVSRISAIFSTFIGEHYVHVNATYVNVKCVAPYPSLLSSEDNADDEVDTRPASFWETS

CC(C)n1c(=O)ccc2cnc(Nc3ccc(OCCN)cc3)nc21 [V16742]
r (3 MG/1 MG LYSATE) (ACLY (IPI00021290); 3 mg vs 1 mg lysate): 3.59
r (5 h/2.5 h INC. TIME) (ACLY (IPI00021290); 5 h vs 2.5 h incubation time): 1.98
rAVERAGE (CTRL/1 INC) (ACLY (IPI00021290); [1]): 0.06
Ki (ACLY (IPI00021290); immobilized VI16742): 162 µM
rAVERAGE (2 INC/1 INC) (ACLY (IPI00021290); second vs first incubation): 0.76
r (3 MG/1 MG LYSATE) (PDE4D (IPI00002449); 3 mg vs 1 mg lysate): 2.48
r (5 h/2.5 h INC. TIME) (PDE4D (IPI00002449); 5 h vs 2.5 h incubation time): 1.09
rAVERAGE (CTRL/1 INC) (PDE4D (IPI00002449); [1]): 0.05
Ki (PDE4D (IPI00002449); immobilized VI16742): 102 µM
rAVERAGE (2 INC/1 INC) (PDE4D (IPI00002449); second vs first incubation): 0.66
rAVERAGE (CTRL/1 INC) (MET (IPI00294528); [1]): 0.08
Ki (MET (IPI00294528); immobilized VI16742): 94.8 µM
rAVERAGE (2 INC/1 INC) (MET (IPI00294528); second vs first incubation): 0.65
rAVERAGE (CTRL/1 INC) (AGL (IPI00328318); [1]): 0.08
Ki (AGL (IPI00328318); immobilized VI16742): 218 µM
rAVERAGE (2 INC/1 INC) (AGL (IPI00328318); second vs first incubation): 0.81
r (3 MG/1 MG LYSATE) (DCI (IPI00300567); 3 mg vs 1 mg lysate): 3.25
r (5 h/2.5 h INC. TIME) (DCI (IPI00300567); 5 h vs 2.5 h incubation time): 1.68
rAVERAGE (CTRL/1 INC) (DCI (IPI00300567); [1]): 0.04
Ki (DCI (IPI00300567); immobilized VI16742): 236 µM
rAVERAGE (2 INC/1 INC) (DCI (IPI00300567); second vs first incubation): 0.82
rAVERAGE (CTRL/1 INC) (MASTL (IPI00074258); [1]): 0.09
Ki (MASTL (IPI00074258); immobilized VI16742): 109 µM
rAVERAGE (2 INC/1 INC) (MASTL (IPI00074258); second vs first incubation): 0.68
